Results taken from patent publication US20260132127A1, “NOVEL SPIRO COMPOUND” (MITSUBISHI TANABE PHARMA CORPORATION, priority 2021, published 2026).

Molecular target: T1, human TRH-DE (Homo sapiens, UniProt Q9UKU6)
T1 construct: expressed in transfected cells; host or cells: Expi 293 cells (transient expression), membrane fraction
T1 sequence (Q9UKU6 1-1069): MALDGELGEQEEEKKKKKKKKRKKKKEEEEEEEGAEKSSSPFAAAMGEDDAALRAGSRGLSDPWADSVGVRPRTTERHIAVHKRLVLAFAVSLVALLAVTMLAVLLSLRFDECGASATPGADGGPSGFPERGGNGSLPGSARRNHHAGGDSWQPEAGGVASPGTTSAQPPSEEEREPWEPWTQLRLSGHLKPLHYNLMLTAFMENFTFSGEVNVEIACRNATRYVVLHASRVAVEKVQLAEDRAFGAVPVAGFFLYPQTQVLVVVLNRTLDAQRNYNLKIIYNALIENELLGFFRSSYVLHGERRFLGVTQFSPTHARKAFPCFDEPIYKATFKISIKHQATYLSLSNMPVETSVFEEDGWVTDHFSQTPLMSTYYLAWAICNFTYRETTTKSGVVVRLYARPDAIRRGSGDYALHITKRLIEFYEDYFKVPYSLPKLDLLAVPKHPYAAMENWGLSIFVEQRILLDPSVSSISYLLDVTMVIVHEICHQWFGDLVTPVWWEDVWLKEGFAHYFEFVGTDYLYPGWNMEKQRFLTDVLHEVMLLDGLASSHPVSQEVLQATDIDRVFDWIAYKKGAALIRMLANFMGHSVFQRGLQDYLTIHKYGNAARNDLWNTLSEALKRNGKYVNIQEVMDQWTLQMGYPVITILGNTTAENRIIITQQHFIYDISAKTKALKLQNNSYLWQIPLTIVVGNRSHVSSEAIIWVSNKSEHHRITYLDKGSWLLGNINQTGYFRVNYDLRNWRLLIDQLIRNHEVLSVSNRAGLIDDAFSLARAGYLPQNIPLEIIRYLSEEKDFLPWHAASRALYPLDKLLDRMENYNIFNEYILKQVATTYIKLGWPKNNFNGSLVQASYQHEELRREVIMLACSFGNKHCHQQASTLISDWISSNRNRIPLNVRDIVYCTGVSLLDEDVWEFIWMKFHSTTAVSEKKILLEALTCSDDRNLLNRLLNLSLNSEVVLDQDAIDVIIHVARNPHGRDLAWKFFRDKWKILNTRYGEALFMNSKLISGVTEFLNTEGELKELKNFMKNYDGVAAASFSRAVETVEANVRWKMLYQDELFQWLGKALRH
Assay: TRH-DE inhibition test (RapidFire MS measurement of product Cyclo (His-Pro))
Assay type: biochemical
Details: membrane fraction of Expi 293 cells expressing human TRH-DE; 10 μM TRH substrate; room temperature, 2 hours; 16-point concentration test
Procedure, shortened: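 Inhibition derived from product/internal-standard ratios of Cyclo(His-Pro), quantified by RapidFire triple-quadrupole MS after acetonitrile:methanol quench, with IC50 fitted over 16 concentrations. Enzyme source: membranes of Expi 293 cells transiently expressing human TRH-DE, 4 μg/ml, pH 7.4 phosphate buffer. Incubation with 10 μM substrate ran 2 h at room temperature.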

| IC50 [µM] | Structure (SMILES) |
| --- | --- |
| 0.183 | Cc1ccsc1S(=O)(=O)N1CC2(CC(N3C(=O)c4cccnc4OCC3C)C2)C1 (stereo not drawn) [Example 413] |
| 0.618 | CCCN(C(=O)c1cccnc1OC)C1CC2(C1)CN(S(=O)(=O)c1cccc(C)c1)C2 [Example 414, 2-methoxy-N-[2-(3-methylphenyl)sulfonyl-2-azaspiro[3.3]heptan-6-yl]-N-propylpyridine-3-carboxamide] |
| 0.847 | CCCN(C(=O)c1cccnc1OC)C1CC2(C1)CN(S(=O)(=O)c1cccs1)C2 [Example 415] |
| 0.676 | CCCN(C(=O)c1cccnc1OC)C1CC2(C1)CN(S(=O)(=O)c1ccccc1F)C2 [Example 416] |
| 0.69 | CCCN(C(=O)c1cccnc1OC)C1CC2(C1)CN(S(=O)(=O)c1sccc1C)C2 [Example 417] |
| 0.075 | CCCN(C(=O)c1cccnc1OC)C1CC2(C1)CN(S(=O)(=O)c1cc(C)ccc1F)C2 [Example 418] |
| 0.685 | CCCN(C(=O)c1cccnc1OC)C1CC2(C1)CN(S(=O)(=O)c1cccc(-c3ccccc3)c1)C2 [Example 419] |
| 0.701 | CCCN(C(=O)c1cccnc1OC)C1CC2(C1)CN(S(=O)(=O)c1cccc(C)c1F)C2 [Example 420] |
| 0.48 | CCCN(C(=O)c1cccnc1OC)C1CC2(C1)CN(S(=O)(=O)c1cc(OC)ccc1F)C2 [Example 421] |
| 0.218 | COCC1C(c2ccccc2)=CC(=O)N1C1CC2(C1)CN(S(=O)(=O)c1ccccc1F)C2 (stereo not drawn) [Example 422] |
| 0.974 | CCCN(C(=O)c1cccnc1OC)C1CC2(C1)CN(S(=O)(=O)c1ccccc1)C2 [Example 423, N-[2-(benzenesulfonyl)-2-azaspiro[3.3]heptan-6-yl]-2-methoxy-N-propylpyridine-3-carboxamide] |
| 0.795 | CCCN(C(=O)c1cccnc1OCC)C1CC2(C1)CN(S(=O)(=O)c1cccc(C)c1)C2 [Example 424] |
| 0.86 | CCCN(C(=O)c1ccccc1OC)C1CC2(C1)CN(S(=O)(=O)c1cccc(C)c1)C2 [Example 425] |
| 0.095 | CCCN(C(=O)c1ccnc2[nH]cnc12)C1CC2(C1)CN(S(=O)(=O)c1cc(C)ccc1F)C2 [Example 426] |
| 0.052 | CCCN(C(=O)c1cccnc1N(C)C)C1CC2(C1)CN(S(=O)(=O)c1cc(C)ccc1F)C2 [Example 427] |
| 0.014 | CCCN(C(=O)c1ccnc2[nH]ccc12)C1CC2(C1)CN(S(=O)(=O)c1cc(C)ccc1F)C2 [Example 428] |
| 0.014 | CCCN(C(=O)c1cccnc1NC1CC1)C1CC2(C1)CN(S(=O)(=O)c1cc(C)ccc1F)C2 [Example 429] |
| 0.048 | CCCN(C(=O)c1cccc2[nH]c(C)nc12)C1CC2(C1)CN(S(=O)(=O)c1cc(C)ccc1F)C2 [Example 430] |
| 0.347 | CCCN(C(=O)c1nc2ccccc2[nH]1)C1CC2(C1)CN(S(=O)(=O)c1cc(C)ccc1F)C2 [Example 431] |
| 0.344 | CC1CCCNC(=O)N1C1CC2(C1)CN(S(=O)(=O)c1ccccc1F)C2 (stereo not drawn) [Example 432, 1-[2-(2-fluorophenyl)sulfonyl-2-azaspiro[3.3]heptan-6-yl]-7-methyl-1,3-diazepan-2-one] |
| 0.868 | CC1CCOC(=O)N1C1CC2(C1)CN(S(=O)(=O)c1ccccc1F)C2 (stereo not drawn) [Example 433, 3-[2-(2-fluorophenyl)sulfonyl-2-azaspiro[3.3]heptan-6-yl]-4-methyl-1,3-oxazinan-2-one] |

| IC50 [µM] | Structure (SMILES) |
| --- | --- |
| 0.279 | CC1CCNC(=O)N1C1CC2(C1)CN(S(=O)(=O)c1ccccc1F)C2 (stereo not drawn) [Example 434, 1-[2-(2-fluorophenyl)sulfonyl-2-azaspiro[3.3]heptan-6-yl]-6-methyl-1,3-diazinan-2-one] |
| 0.492 | C[C@@H]1CNC(=O)N1C1CC2(C1)CN(S(=O)(=O)c1ccccc1F)C2 [Example 435, (5R)-1-[2-(2-fluorophenyl)sulfonyl-2-azaspiro[3.3]heptan-6-yl]-5-methylimidazolidin-2-one] |
| 0.247 | CC1CSCC(=O)N1C1CC2(C1)CN(S(=O)(=O)c1ccccc1F)C2 (stereo not drawn) [Example 441, 4-[2-(2-fluorophenyl)sulfonyl-2-azaspiro[3.3]heptan-6-yl]-5-methylthiomorpholin-3-one] |
| 0.551 | C[C@@H]1CCNCC(=O)N1C1CC2(C1)CN(S(=O)(=O)c1ccccc1F)C2 [Example 442, (7R)-1-[2-(2-fluorophenyl)sulfonyl-2-azaspiro[3.3]heptan-6-yl]-7-methyl-1,4-diazepan-2-one] |
| 0.157 | C[C@@H]1CCN(CC2CC2)CC(=O)N1C1CC2(C1)CN(S(=O)(=O)c1ccccc1F)C2 [Example 443, (7R)-4-(cyclopropylmethyl)-1-[2-(2-fluorophenyl)sulfonyl-2-azaspiro[3.3]heptan-6-yl]-7-methyl-1,4-diazepan-2-one] |
| 0.789 | C[C@@H]1CCN(C)CC(=O)N1C1CC2(C1)CN(S(=O)(=O)c1ccccc1F)C2 [Example 444] |
| 0.171 | C[C@@H]1CCN(Cc2ccccc2)CC(=O)N1C1CC2(C1)CN(S(=O)(=O)c1ccccc1F)C2 [Example 446] |
| 0.403 | C[C@@H]1CCN(C2CCOCC2)CC(=O)N1C1CC2(C1)CN(S(=O)(=O)c1ccccc1F)C2 [Example 447] |
| 0.474 | C[C@@H]1CCN(CCC(F)(F)F)CC(=O)N1C1CC2(C1)CN(S(=O)(=O)c1ccccc1F)C2 [Example 448] |
| 0.065 | C[C@@H]1CCN(C(=O)c2cc[nH]n2)CC(=O)N1C1CC2(C1)CN(S(=O)(=O)c1ccccc1F)C2 [Example 449] |
| 0.081 | C[C@@H]1CCN(C(=O)c2cccs2)CC(=O)N1C1CC2(C1)CN(S(=O)(=O)c1ccccc1F)C2 [Example 450] |
| 0.076 | C[C@@H]1CCN(C(=O)c2ccc3ccccc3c2)CC(=O)N1C1CC2(C1)CN(S(=O)(=O)c1ccccc1F)C2 [Example 451] |
| 0.088 | C[C@@H]1CCN(C(=O)C2(F)CC2)CC(=O)N1C1CC2(C1)CN(S(=O)(=O)c1ccccc1F)C2 [Example 452] |
| 0.348 | COCCC(=O)N1CC[C@@H](C)N(C2CC3(C2)CN(S(=O)(=O)c2ccccc2F)C3)C(=O)C1 [Example 453] |
| 0.07 | C[C@@H]1CCN(C(=O)c2ccccc2)CC(=O)N1C1CC2(C1)CN(S(=O)(=O)c1ccccc1F)C2 [Example 454] |
| 0.291 | C[C@@H]1CCN(S(C)(=O)=O)CC(=O)N1C1CC2(C1)CN(S(=O)(=O)c1ccccc1F)C2 [Example 455, (7R)-1-[2-(2-fluorophenyl)sulfonyl-2-azaspiro[3.3]heptan-6-yl]-7-methyl-4-methylsulfonyl-1,4-diazepan-2-one] |
| 0.09 | C[C@@H]1CCN(c2ccccn2)CC(=O)N1C1CC2(C1)CN(S(=O)(=O)c1ccccc1F)C2 [Example 456, (7R)-1-[2-(2-fluorophenyl)sulfonyl-2-azaspiro[3.3]heptan-6-yl]-7-methyl-4-pyridin-2-yl-1,4-diazepan-2-one] |
| 0.171 | CC1CCOCC(=O)N1C1CC2(C1)CN(S(=O)(=O)c1ccccc1F)C2 (stereo not drawn) [Example 457, 4-[2-(2-fluorophenyl)sulfonyl-2-azaspiro[3.3]heptan-6-yl]-5-methyl-1,4-oxazepan-3-one] |
| 0.28 | C[C@@H]1COCC(=O)N1C1CC2(C1)CN(S(=O)(=O)c1ccccc1F)C2 [Example 458, (5R)-4-[2-(2-fluorophenyl)sulfonyl-2-azaspiro[3.3]heptan-6-yl]-5-methylmorpholin-3-one] |
| 0.176 | CC1CCCCC(=O)N1C1CC2(C1)CN(S(=O)(=O)c1ccccc1F)C2 (stereo not drawn) [Example 459, 1-[2-(2-fluorophenyl)sulfonyl-2-azaspiro[3.3]heptan-6-yl]-7-methylazepan-2-one] |
| 0.424 | C[C@@H]1COCCC(=O)N1C1CC2(C1)CN(S(=O)(=O)c1ccccc1F)C2 [Example 460, (3R)-4-[2-(2-fluorophenyl)sulfonyl-2-azaspiro[3.3]heptan-6-yl]-3-methyl-1,4-oxazepan-5-one] |
